Consider 22 molecules from patent US8937091B2 (Japan Science and Technology Agency, priority 2009, dated 2015).

The test system of assay [1] is IICR (IP3 induced calcium release) in CHO cells. In words: Assay of IICR (IP3 induced calcium release)-inhibiting action. In kind it is cell-based, Chinese hamster. As to conditions: CHO cells, 10 μM ATP; for inhibition at 10 µM / inhibition at 30 µM / inhibition at 100 µM: Cricetulus griseus, CHO, read-out: IICR level (percentage of inhibition). In a few lines: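 CHO cell medium replaced with calcium-containing BSS; compound added 1 min later, then 10 μM ATP after a further 2 min. Percent inhibition of the ATP-evoked rise in intracellular calcium determined at each compound concentration.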

Assay [2] concerns SOCE (store operated calcium entry) in CHO cells. The assay can be described thus: Assay of SOCE (store operated calcium entry)-inhibiting action. Format: cell-based, Chinese hamster. To be noted: CHO cells, thapsigargin; for inhibition at 10 µM / inhibition at 30 µM / inhibition at 100 µM: Cricetulus griseus, CHO, read-out: SOCE level (percentage of inhibition). The method, boiled down: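 CHO cells in calcium-free BSS received compound, then 1 μM thapsigargin 2 min later to deplete stores; after 9 min, 2 mM calcium chloride (final) added. Percent inhibition of the rise in intracellular calcium determined at various compound concentrations.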

Regarding `CC(C)(C)N(CCC(=O)c1cccs1)Cc1ccccc1` [Example 193, 2-(N-t-butylbenzyl)aminoethyl-2-thiophenylketone], the inhibition (usually the share of the control response that was lost under treatment) at 10 µM in assay [1] (test compound 10 μmol) is 70%; in assay [2] (test compound 10 μmol), 0%. Moreover, the inhibition at 30 µM is 95% in assay [1] (test compound 30 μmol) and 0% in assay [2] (test compound 30 μmol). For the same molecule, the inhibition at 100 µM in assay [1] (test compound 100 μmol) was determined as 100%; in assay [2] (test compound 100 μmol) it was 0%.
`CC(C)N(CCC(=O)n1ccnc1)Cc1ccccc1` [Example 224, 2-(N-isopropylbenzyl)aminoethyl-1-imidazolylketone]: the inhibition at 10 µM in assay [1] (test compound 10 μmol) came to 20%; in assay [2] (test compound 10 μmol), 0%. Also, the inhibition at 30 µM in assay [1] (test compound 30 μmol) came to 20%; in assay [2] (test compound 30 μmol) it was 0%. Also, the inhibition at 100 µM amounted to 0% in assay [1] (test compound 100 μmol) and 20% in assay [2] (test compound 100 μmol).
On to `CC(C)N(CCC(=O)c1cc2ccccc2s1)Cc1ccccc1` [Example 283, 2-(N-isopropylbenzyl)aminoethyl-2-benzothienylketone], for which, in assay [1] (test compound 10 μmol), the inhibition at 10 µM was found to be 50%. Also, the inhibition at 30 µM in assay [1] (test compound 30 μmol) stood at 80%; in assay [2] (test compound 30 μmol) it was 0%. Moreover, the inhibition at 100 µM came to 50% in assay [1] (test compound 100 μmol) and 40% in assay [2] (test compound 100 μmol).
As to `CCCCN(CCC(=O)c1ccncc1)Cc1ccccc1` [Example 376, 2-(N-butyl-N-benzyl)aminoethyl-4-pyridylketone], the inhibition at 10 µM in assay [1] (test compound 10 μmol) came to 18%; in assay [2] (test compound 10 μmol) it was 21%. Also, the inhibition at 30 µM turned out to be 84% in assay [1] (test compound 30 μmol) and 0% in assay [2] (test compound 30 μmol). The inhibition at 100 µM stood at 51% in assay [1] (test compound 100 μmol) and 27% in assay [2] (test compound 100 μmol).
For the molecule `O=C(CCNC(c1ccccc1)C(O)c1ccccc1)c1ccc(Br)s1` (stereo not drawn) [Example 355, 2-(2-hydroxy-1,2-diphenyl-ethyl)aminoethyl-5-bromo-2-thienylketone], the inhibition at 10 µM in assay [1] (test compound 10 μmol) and in assay [2] (test compound 10 μmol) was 0% each time. Also, the inhibition at 30 µM is 0% in assay [1] (test compound 30 μmol) and 16% in assay [2] (test compound 30 μmol). Further, the inhibition at 100 µM in assay [1] (test compound 100 μmol) worked out at 50%; in assay [2] (test compound 100 μmol) it was 16%.
As to `CC(C)(C)N(CCC(=O)c1ccc(C#N)cc1)Cc1ccccc1` [Example 304, 4-cyanophenyl(N-benzyl-N-t-butyl)aminoethylketone], the “IICR level (percentage of inhibition)” value is reported as 90% in assay [1] (test compound 10 μmol), 100% in assay [1] (test compound 30 μmol) and 20% in assay [1] (test compound 100 μmol). Besides, the entries for the “SOCE level (percentage of inhibition)” value in assay [2] (test compound 10 μmol), in assay [2] (test compound 30 μmol) and in assay [2] (test compound 100 μmol) were 0%, 0% and 10%, respectively.
`CCN(CCC(=O)c1ccc(Br)s1)Cc1ccccc1` [Example 301, 2-(N-ethylbenzyl)aminoethyl-5-bromo-2-thienylketone]: the inhibition at 10 µM in assay [1] (test compound 10 μmol) amounted to 70%; in assay [2] (test compound 10 μmol), 20%. For the same molecule, the inhibition at 30 µM turned out to be 70% in assay [1] (test compound 30 μmol) and 30% in assay [2] (test compound 30 μmol). The figures for the inhibition at 100 µM in assay [1] (test compound 100 μmol) and in assay [2] (test compound 100 μmol) were 90% and 40%, respectively.
`CC(C)N(CCC(=O)c1ccc(Cl)cc1)Cc1ccccc1` [Example 310, 2-(N-benzylisopropyl)aminoethyl-4-chloro-phenylketone]: the inhibition at 10 µM in assay [1] (test compound 10 μmol) was determined as 80%; in assay [2] (test compound 10 μmol) it was 0%. Also, the inhibition at 30 µM in assay [1] (test compound 30 μmol) was 80%; in assay [2] (test compound 30 μmol) it was 0%. Also, the results for the inhibition at 100 µM in assay [1] (test compound 100 μmol) and in assay [2] (test compound 100 μmol) were 70% and 10%, respectively.
Turning to `CC(C)N(CCO)CCC(=O)c1ccccn1` [Example 154, 2-(N-hydroxyethylisopropyl)aminoethyl-2-pyridylketone], the inhibition at 10 µM turned out to be 40% in assay [1] (test compound 10 μmol) and 0% in assay [2] (test compound 10 μmol). The inhibition at 30 µM turned out to be 20% in assay [1] (test compound 30 μmol) and 0% in assay [2] (test compound 30 μmol). Moreover, the inhibition at 100 µM in assay [1] (test compound 100 μmol) came out at 80%; in assay [2] (test compound 100 μmol), 0%.
`CCCCN(CCO)CCC(=O)c1cccnc1` [Example 180, 2-(N-2-hydroxyethylbutyl)aminoethyl-3-pyridylketone]: the inhibition at 10 µM in assay [1] (test compound 10 μmol) and in assay [2] (test compound 10 μmol) was 0% each time. Besides, the inhibition at 30 µM in assay [1] (test compound 30 μmol) and in assay [2] (test compound 30 μmol) was 0% in each case. In addition, the results for the inhibition at 100 µM in assay [1] (test compound 100 μmol) and in assay [2] (test compound 100 μmol) were 50% and 0%, respectively.
Take `CC(C)(C)N(CCC(=O)c1ccc(Br)cc1)Cc1ccccc1` [Example 324, 2-(N-benzyl-t-butyl)aminoethyl-4-bromophenylketone]: the inhibition at 10 µM in assay [1] (test compound 10 μmol) is 50%; in assay [2] (test compound 10 μmol), 20%. The inhibition at 30 µM in assay [1] (test compound 30 μmol) came out at 40%; in assay [2] (test compound 30 μmol), 20%. Moreover, the inhibition at 100 µM in assay [1] (test compound 100 μmol) is 40%; in assay [2] (test compound 100 μmol), 20%.
For the molecule `CN1CCN(CCC(=O)c2ccc(Br)s2)CC1` [Example 363, 2-(N-methylpiperadino)ethyl-5-bromo-2-thienylketone], the inhibition at 10 µM in assay [1] (test compound 10 μmol) and in assay [2] (test compound 10 μmol) was 0% in each case. The inhibition at 30 µM in assay [1] (test compound 30 μmol) and in assay [2] (test compound 30 μmol) was 0% in each case. Also, the inhibition at 100 µM in assay [1] (test compound 100 μmol) amounted to 70%; in assay [2] (test compound 100 μmol), 14%.
Consider `O=C(CCNC(CO)c1ccccc1)c1ccc(Br)s1` (stereo not drawn) [Example 342, 2-(N-1-phenyl-2-hydroxyethyl)aminoethyl-5-bromo-2-thienylketone], for which the inhibition at 10 µM in assay [1] (test compound 10 μmol) and in assay [2] (test compound 10 μmol) was 0% each time. Also, the inhibition at 30 µM in assay [1] (test compound 30 μmol) worked out at 20%; in assay [2] (test compound 30 μmol) it was 0%. Moreover, the values for the inhibition at 100 µM in assay [1] (test compound 100 μmol) and in assay [2] (test compound 100 μmol) were 40% and 34%, respectively.
In the case of `O=C(CCN1CCCC1CO)c1ccc(Br)s1` (stereo not drawn) [Example 333, 2-(2-hydroxymethylpyrrolidinyl)aminoethyl-5-bromo-2-thienylketone], the inhibition at 10 µM in assay [1] (test compound 10 μmol) worked out at 0%; in assay [2] (test compound 10 μmol), 20%. In addition, the inhibition at 30 µM in assay [1] (test compound 30 μmol) and in assay [2] (test compound 30 μmol) was 30% in each case. Moreover, the inhibition at 100 µM came out at 50% in assay [1] (test compound 100 μmol) and 20% in assay [2] (test compound 100 μmol).
For `O=C(CCNCCc1ncc[nH]1)c1cccnc1` [Example 176], the inhibition at 10 µM was determined as 10% in assay [1] (test compound 10 μmol) and 0% in assay [2] (test compound 10 μmol). The inhibition at 30 µM in assay [1] (test compound 30 μmol) is 30%; in assay [2] (test compound 30 μmol), 0%. In addition, the inhibition at 100 µM in assay [1] (test compound 100 μmol) was 50%; in assay [2] (test compound 100 μmol), 0%.
As for `CC(C)N(CCCC(=O)c1ccccc1)Cc1ccccc1` [Example 179, 3-(N-isopropylbenzyl)aminopropylphenylketone], the inhibition at 10 µM in assay [1] (test compound 10 μmol) and in assay [2] (test compound 10 μmol) was 0% throughout. Besides, the inhibition at 30 µM in assay [1] (test compound 30 μmol) and in assay [2] (test compound 30 μmol) was 0% throughout. The inhibition at 100 µM in assay [1] (test compound 100 μmol) and in assay [2] (test compound 100 μmol) was 0% throughout.
With `CC(C)N(CCO)CCC(=O)c1ccco1` [Example 172, 2-(N-isopropylhydroxyethyl)aminoethyl-2-furylketone], the inhibition at 10 µM in assay [1] (test compound 10 μmol) turned out to be 0%. The “SOCE level (percentage of inhibition)” value in assay [2] (test compound 10 μmol), in assay [2] (test compound 30 μmol) and in assay [2] (test compound 100 μmol) was 0% throughout.
With `NCCSSCCN(CCC(=O)c1ccc(Cl)s1)CCC(=O)c1ccc(Cl)s1` [Example 366, N,N-bis(2-(5-chloro-2-thiophenoyl)ethyl)cystamine], the inhibition at 10 µM in assay [1] (test compound 10 μmol) turned out to be 0%; in assay [2] (test compound 10 μmol), 6%. For the same molecule, the inhibition at 30 µM in assay [1] (test compound 30 μmol) and in assay [2] (test compound 30 μmol) was 0% in each case. Also, the inhibition at 100 µM was 70% in assay [1] (test compound 100 μmol) and 90% in assay [2] (test compound 100 μmol).
Regarding `COc1ccc(C(=O)CCN(Cc2ccccc2)C(C)C)cc1` [Example 72, 2-(N-isopropylbenzyl)aminoethyl-4-methoxyphenylketone], the inhibition at 10 µM in assay [1] (test compound 10 μmol) was determined as 20%; in assay [2] (test compound 10 μmol), 0%. For the same molecule, the values for the inhibition at 30 µM in assay [1] (test compound 30 μmol) and in assay [2] (test compound 30 μmol) were 20% and 10%, respectively. In addition, the inhibition at 100 µM in assay [1] (test compound 100 μmol) worked out at 70%; in assay [2] (test compound 100 μmol) it was 20%.
`CC(C)(C)N(CCC(=O)c1ccc(I)s1)Cc1ccccc1` [Example 405, 2-(N-t-butyl-N-benzyl)aminoethyl-5-iodo-2-thienylketone]: the inhibition at 10 µM in assay [1] (test compound 10 μmol) is 78%; in assay [2] (test compound 10 μmol), 20%. For the same molecule, the inhibition at 30 µM in assay [1] (test compound 30 μmol) came to 73%; in assay [2] (test compound 30 μmol), 40%. Moreover, the inhibition at 100 µM in assay [1] (test compound 100 μmol) worked out at 35%; in assay [2] (test compound 100 μmol), 50%.
Take `CC(C)N(CCC(=O)c1ccc(F)cc1)Cc1ccccc1` [Example 212, 2-(N-isopropylbenzyl)aminoethyl-4-fluorophenylketone]: the inhibition at 10 µM in assay [1] (test compound 10 μmol) was 20%; in assay [2] (test compound 10 μmol), 0%. Moreover, the inhibition at 30 µM in assay [1] (test compound 30 μmol) amounted to 80%; in assay [2] (test compound 30 μmol), 30%. The results for the inhibition at 100 µM in assay [1] (test compound 100 μmol) and in assay [2] (test compound 100 μmol) were 30% and 50%, respectively.
As to `CN(CCC(=O)c1ccc(Cc2ccccc2)cc1)Cc1ccccc1` [Example 104, 2-(N-methylbenzyl)aminoethyl-4-benzylphenylketone], the results for the inhibition at 10 µM in assay [1] (test compound 10 μmol) and in assay [2] (test compound 10 μmol) were 40% and 0%, respectively. For the same molecule, the inhibition at 30 µM in assay [1] (test compound 30 μmol) came out at 20%; in assay [2] (test compound 30 μmol), 10%. Besides, the inhibition at 100 µM in assay [1] (test compound 100 μmol) amounted to 90%; in assay [2] (test compound 100 μmol), 70%.
